Test results as given in US7166744B2, “Retinoid derivatives and methods for producing said compounds and anti-cancer pharmaceutical composition comprising said compounds” (Chebigen Co., Ltd., priority 2001, dated 2007).

Tests used:
Type in all cases: cell-based
[1] = system: HCT116 colon cancer cells; experiment: Trypan blue surviving cell count, HCT116; conditions: for relative surviving cells (%): trypan blue
Source text: (§1) Surviving cells, which had not be stained by trypan blue were counted and the results are shown in Table 3 as relative surviving cells (%).

DLD-1 colon cancer cells = experiment: Trypan blue surviving cell count, DLD-1
Source text: as §1

MMP-2 mRNA expression = experiment: RT-PCR of MMP-2 mRNA in HCT116; conditions: HCT116, 1 μM; for inhibition of MMP-2 mRNA expression: 36 hours
Protocol: Previously, it was shown that the synthetic retinoid derivatives inhibit the transcriptional activity of AP-1. Also, it is well known that MMP (matrix metalloproteinase), a main target gene of AP-1 is involved in metastasis of cancer cells. Therefore, the inhibitive effects of the retinoid derivatives on metastasis of cancer was examined by RT-PCR analysis. Colon cancer HCT116 cells were treated with 1 μM retinoid for 36 hours. RNA was isolated from the cells and mRNA expression levels of MMP-1, -2 and -3 were analyzed by RT-PCR. […] As the control, GAPDH was used and it was confirmed that its expression was not affected by retinoid. Meanwhile, the expression level of MMP-3 was affected weakly by KCBG40, intermediately by KCBG41 but strongly by KCBG10 (FIG. 9).
RNA was isolated from the cells and mRNA expression levels of MMP-1, -2 and -3 were analyzed by RT-PCR (FIG. 14).

RARβ = molecular target: T1, RARβ (Homo sapiens, UniProt P10826); experiment: CAT reporter assay, RARβ; conditions: 1 μM, control = 1.0; for expression level of CAT enzyme, RARβ −: column '−'
T1 construct: expressed in transfected cells
T1 sequence (P10826 1-455): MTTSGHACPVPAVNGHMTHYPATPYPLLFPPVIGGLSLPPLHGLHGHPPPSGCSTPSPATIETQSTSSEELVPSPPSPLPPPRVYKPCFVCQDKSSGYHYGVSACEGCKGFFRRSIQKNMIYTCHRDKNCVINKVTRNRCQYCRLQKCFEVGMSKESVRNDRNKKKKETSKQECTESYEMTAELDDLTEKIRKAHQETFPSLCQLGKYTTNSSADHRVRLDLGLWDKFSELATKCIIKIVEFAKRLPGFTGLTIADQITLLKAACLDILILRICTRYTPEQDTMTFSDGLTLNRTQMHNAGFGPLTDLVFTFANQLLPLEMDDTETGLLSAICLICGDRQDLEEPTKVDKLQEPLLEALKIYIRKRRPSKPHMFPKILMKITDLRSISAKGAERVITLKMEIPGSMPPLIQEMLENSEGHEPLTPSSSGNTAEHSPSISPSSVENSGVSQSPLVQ
Source text: In order to confirm the effect of KCBG60 according to the present invention on retinoid receptor activity, cells were cotransfected with expression vectors of receptor subfamilies and reporter genes. As the reporter gene, chloramphenicol acetyltransferase (CAT) with a transcription control site reactive to respective receptors was used.

RXRα = molecular target: T2, RXRα (Homo sapiens, UniProt P19793); experiment: CAT reporter assay, RXRα; conditions: 1 μM, control = 1.0, RA = 9-cis RA; for expression level of CAT enzyme, RXRα −: column '−'
T2 construct: expressed in transfected cells
T2 sequence (P19793 1-462): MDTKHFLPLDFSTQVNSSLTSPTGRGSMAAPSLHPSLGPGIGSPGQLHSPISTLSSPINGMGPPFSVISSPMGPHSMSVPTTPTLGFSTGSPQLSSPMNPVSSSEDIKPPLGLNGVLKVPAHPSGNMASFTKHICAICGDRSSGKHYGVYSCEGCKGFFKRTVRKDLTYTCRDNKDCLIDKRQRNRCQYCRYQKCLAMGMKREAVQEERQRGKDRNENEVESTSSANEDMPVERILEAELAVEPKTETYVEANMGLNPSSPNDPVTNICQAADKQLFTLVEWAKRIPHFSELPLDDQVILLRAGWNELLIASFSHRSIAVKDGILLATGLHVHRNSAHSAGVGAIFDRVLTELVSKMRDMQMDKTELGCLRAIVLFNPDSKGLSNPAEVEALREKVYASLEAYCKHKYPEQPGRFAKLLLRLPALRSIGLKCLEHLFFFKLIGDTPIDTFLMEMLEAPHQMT
Source text: As the reporter gene, chloramphenicol acetyltransferase (CAT) with a transcription control site reactive to respective receptors was used.

HCT116 cells = experiment: In vitro matrigel invasion assay, HCT116; conditions: HCT116, 1 μM, 8 hours, matrigel-coated filter
Protocol: Meanwhile, to determine the effect of KCBG60 on the invasion potential of HCT116 cells, in vitro assay was performed. […] After cultivation for a predetermined period of time, the number of cells migrating to lower side of the filter was measured to determin the invasion level (FIG. 15).

[2] = system: PLCPRF5 liver cancer cells; experiment: MTT proliferation assay, PLCPRF5
Protocol: The effects of test compounds on proliferation of various cancer cells was examined by 3-(4,5-dimethylthiazol-2-yl)-2,5-diphenyltetrazolium bromide (MTT, Sigma) assay in a dose dependent manner. In the MTT assay, colon, liver, cervix, ovary, and breast cancer cell lines were treated with test compounds at various concentrations. Living cancer cells reduce MTT to dark blue MTT formazan that would be measured by absorbance.
Colon cancer cells, HCT116, DLD-1 and HT29, cervix cancer cells, HeLa and CaSki, ovary cancer cells, SKOV-3, 2774 and OVCAR-3, liver cancer cells, SK-Hep-1, PLCPRF5 and HepG2, and breast cancer cells, ZR75-1 and MDA-MB 231 were seeded at an initial density of 3000 cells per well in 96-well plates. After attachment of cells to the walls of the wells, the medium containing fresh retinoid was treated with various concentrations (0.5 μM, 1 μM, 2.5 μM, 5 μM, 10 μM) for 48 hours. 50 μl of MTT solution (2 mg/ml in PBS) was added to cell culture media. The reaction micture was incubated at 37° C. in a 5% CO2 atmosphere for 4 hours. The supernatant was removed and 150 μl of DMSO was added. The optical density was measured spectrophotometrically at 550 nm. […] For other retinoid derivatives according to the present invention, absorbances were measured by this procedure and IC50 values, concentrations required for 50% growth inhibition, were determined.

[3] = system: MCF-7 breast cancer cells; experiment: MTT proliferation assay, MCF-7; conditions: 48 hours

Row | Molecule | IC50 [3] | relative surviving cells (%) ([1]; HCT116, 0.5 μM) | relative surviving cells (%) ([1]; HCT116, 1 μM) | relative surviving cells (%) ([1]; HCT116, 5 μM) | relative surviving cells (%) ([1]; HCT116, 10 μM) | relative surviving cells (%) (DLD-1 colon cancer cells; DLD-1, 0.5 μM) | relative surviving cells (%) (DLD-1 colon cancer cells; DLD-1, 1 μM) | relative surviving cells (%) (DLD-1 colon cancer cells; DLD-1, 5 μM) | relative surviving cells (%) (DLD-1 colon cancer cells; DLD-1, 10 μM) | expression level of CAT enzyme, RARβ + (RARβ) | expression level of CAT enzyme, RARβ − (RARβ) | expression level of CAT enzyme, RXRα + (RXRα) | expression level of CAT enzyme, RXRα − (RXRα) | reduction of the number of invaded cells (HCT116 cells) | IC50 ([2]; 48 hours) | inhibition of MMP-2 mRNA expression (MMP-2 mRNA expression) | further results
1 | CCCC(=O)Oc1ccc(NC(=O)/C=C(C)/C=C/C=C(C)/C=C/C2=C(C)CCCC2(C)C)cc1 [KCBG60] |  | 90% | 75% | 45% | 10% | 95% | 85% | 60% | 30% | 1.0 | 0.8 | 1.3 | 0.9 | 50% |  |  | concentration at which inhibition of proliferation began ([1]; HCT116): 0.5 µM; inhibition of proliferation ([1]; HCT116, 10 μM): more than 90%; MMP-2 inhibitory expression level compared to ATRA (MMP-2 mRNA expression; 24 hours): two times higher
2 | CC1=C(/C=C/C(C)=C/C=C/C(C)=C/C(=O)O)C(C)(C)CCC1 [ATRA, All-trans-retinoic acid, reference compound] |  |  |  |  |  |  |  |  |  | 65.2 | 17.3 |  |  | 40% |  |  | IC50 ([2]; Homo sapiens, PLC-PRF-5, 48 hours): > 500 µM; inhibition at 10 µM ([1]; Homo sapiens, HCT-116, HCT116, 10 μM, read-out: inhibition of proliferation): 10 to 30%
3 | CC1=C(/C=C/C(C)=C/C=C/C(C)=C/C(=O)Nc2ccc(O)cc2)C(C)(C)CCC1 [HPR, (2E,4E,6E,8E)-[3,7-dimethyl-9-(2,6,6-trimethylcyclohex-1-enyl)-nona-2,4,6,8-tetraenoylamino]-4-hydroxyphenylamide] | 7 µM | 91% | 70% | 45% | 13% | 94% | 85% | 63% | 28% | 25.3 | 9.1 | 1.5 | 1.0 |  | 20 µM | affected very little | 
4 | phenyl butylate |  | 103% | 103% | 95% | 90% | 105% | 103% | 102% | 92% | 0.9 | 0.7 | 1.2 | 1.1 | did not show invasion inhibiting effect |  |  | effect on expression of MMP-2 (MMP-2 mRNA expression; 24 hours): did not affect expression of MMP-2 at all

Second part, led by results:

Row | IC50 [3] | Molecule | relative surviving cells (%) ([1]; HCT116, 0.5 μM) | relative surviving cells (%) ([1]; HCT116, 1 μM) | relative surviving cells (%) ([1]; HCT116, 5 μM) | relative surviving cells (%) ([1]; HCT116, 10 μM) | relative surviving cells (%) (DLD-1 colon cancer cells; DLD-1, 0.5 μM) | relative surviving cells (%) (DLD-1 colon cancer cells; DLD-1, 1 μM) | relative surviving cells (%) (DLD-1 colon cancer cells; DLD-1, 5 μM) | relative surviving cells (%) (DLD-1 colon cancer cells; DLD-1, 10 μM) | expression level of CAT enzyme, RARβ + (RARβ) | expression level of CAT enzyme, RARβ − (RARβ) | expression level of CAT enzyme, RXRα + (RXRα) | expression level of CAT enzyme, RXRα − (RXRα) | reduction of the number of invaded cells (HCT116 cells) | IC50 ([2]; 48 hours) | inhibition of MMP-2 mRNA expression (MMP-2 mRNA expression) | further results
5 | 1.3 µM | CCCC(=O)Oc1cc(O)ccc1NC(=O)/C=C(C)/C=C/C=C(C)/C=C/C1=C(C)CCCC1(C)C [KCBG10, 2.2-[(2E,4E,6E,8E)-3,7-Dimethyl-9-(2,6,6-trimethylcyclohex-1-enyl)-nona-2,4,6,8-tetraenoylamino]-5-hydroxyphenylbutanoate] |  |  |  |  |  |  |  |  |  |  |  |  |  | 12 µM | weakly | 
6 | 5.5 µM | CCCC(=O)Nc1cc(NC(=O)/C=C(C)/C=C/C=C(C)/C=C/C2=C(C)CCCC2(C)C)ccc1O [KCBG41, (2E,4E,6E,8E)-[3,7-dimethyl-9-(2,6,6-trimethylcyclohex-1-enyl)-nona-2,4,6,8-tetraenoylamino]-(3-butyrylamino-4-hydroxy)phenylamide] |  |  |  |  |  |  |  |  |  |  |  |  |  |  | strongly | 
